Experiments:
TBK1 = molecular target: T1, TBK1 (Homo sapiens, UniProt Q9UHD2); assay: Inhibition of TBK1 in Cells (TLR3 driven ISRE β-lactamase reporter assay); assay type: cell-based; conditions: poly IC-LMW stimulation 16 hrs; -log(EC50), EC50 molar; read-out: Inhibition of TBK1 in cells pEC50 (EC) (converted)
T1 construct: host or cells: RA1-ISRE beta-lactamase reporter cells
T1 sequence (Q9UHD2 1-729): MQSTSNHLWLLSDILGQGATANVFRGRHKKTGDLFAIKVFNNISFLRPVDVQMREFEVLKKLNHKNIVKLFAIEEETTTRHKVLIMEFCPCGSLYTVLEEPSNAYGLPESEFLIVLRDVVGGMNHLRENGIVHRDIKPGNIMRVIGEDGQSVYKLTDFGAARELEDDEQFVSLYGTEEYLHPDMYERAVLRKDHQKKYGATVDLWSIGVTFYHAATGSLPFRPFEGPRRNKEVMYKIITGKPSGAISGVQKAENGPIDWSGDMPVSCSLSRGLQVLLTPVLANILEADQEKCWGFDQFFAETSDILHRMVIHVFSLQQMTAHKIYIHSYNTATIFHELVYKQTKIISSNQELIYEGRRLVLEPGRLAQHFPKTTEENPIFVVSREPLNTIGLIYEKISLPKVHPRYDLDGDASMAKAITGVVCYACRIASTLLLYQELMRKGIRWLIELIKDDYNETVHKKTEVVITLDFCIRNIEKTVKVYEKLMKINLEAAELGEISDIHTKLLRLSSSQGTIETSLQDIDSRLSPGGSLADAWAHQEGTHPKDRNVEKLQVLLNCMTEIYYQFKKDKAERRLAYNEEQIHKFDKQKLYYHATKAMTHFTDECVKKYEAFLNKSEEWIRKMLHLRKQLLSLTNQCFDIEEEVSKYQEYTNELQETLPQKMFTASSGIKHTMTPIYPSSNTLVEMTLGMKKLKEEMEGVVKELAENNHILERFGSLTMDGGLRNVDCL
Description: TBK1 inhibition is determined using a TLR3 driven RA1-ISRE β-lacatamase reporter assay (Life Technologies). In the assay 50,000 cells/well are plated in black clear bottom 384 well plate. Each test compound is prepared in DMSO using 2.5-fold serial dilutions for 11 data points, which are then added to the media. Cells are stimulated with 0.15 mg/ml poly IC-LMW (Invivogen) for 16 hrs. Reporter activity is detected using the LiveBLAzer-FRET B/G CCF4-AM substrate (Life Technologies) and the plate is read using the Spectramax M5 instrument. Corresponding EC50 values are calculated by non-linear curve fitting of the compound concentrations and percent of inhibition to the standard EC50 equation and reported as pEC50, i.e., −log(EC50), where EC50 is the molar concentration.

Full length human TBK1 = molecular target: T2, Full length human TBK1 (Homo sapiens, UniProt Q9UHD2); assay: Inhibition of TBK1 Enzyme (Caliper microfluidic assay); assay type: biochemical; conditions: 25 μM ATP, 60 min at RT; -log(IC50), IC50 molar; read-out: TBK1 Inhibition (pIC50) (converted)
T2 construct: Full length human TBK1 with an N-terminal His-tag; His-tag (N); made in house; host or cells: Sf9 insect cells (baculovirus, pFastBac1)
T2 sequence (Q9UHD2 1-729): T1 sequence (Q9UHD2 1-729)
Description: Full length human TBK1 with an N-terminal His-tag was cloned into the pFastBacl vector and was transfected into Sf9 cells. 72 hours later the virus was harvested and amplified through two additional rounds of infections. Then 400 ml of the resulting virus stock was used to infect 10L of Sf9 cells at a density of 2×10^6 cells/ml. Cell pellets were harvested 48 hours post infection and were lysed by freeze-thaw, homogenization and sonication in binding buffer (25 mM Tris pH7.6, 1 M NaCl, 10 mM imidazole, 0.5 mM TCEP) plus 0.1% Triton X-100 and complete protease inhibitor cocktail. The lysate was spun and the supernatant was purified with a HisTrap FF crude and a Superdex 200 pg column.
TBK1 inhibition is determined using a 384 well plate format in buffer containing 20 mM Hepes, pH 7.4, 10 mM MgCl2, 1 mM EDTA, 0.01% Brij-L23, 1 mM DTT. Each test compound is prepared in DMSO using 2.5-fold serial dilutions for 11 data points, which are added to the buffer so that each dilution contains 1% DMSO. To each well is added 2 μL of 1 μm 5FAM-DRHDSGLDSMKDE-NH2 (in buffer), 2 μL of diluted test compound (1% DMSO in buffer), and 5 μL of 3 nM TBK1 and 25 μM ATP (in buffer). The reaction mixture is incubated at RT for 60 min, and quenched by adding 20 mM Hepes, pH 7.4, 10 mM MgCl2, 1 mM EDTA, 0.01% Brij-L23, 1 mM DTT+25 mM EDTA. To quantify the fluorescent-labeled substrate and product following reaction, the test plate is loaded on a Caliper LC-3000, which measures percent of conversion by microfluidic-based separation. Corresponding IC50 values are calculated by non-linear curve fitting of the compound concentrations and percent of inhibition to the standard IC50 equation and reported as pIC50, i.e., −log(IC50), where IC50 is the molar concentration.

Compound | EC50 (TBK1) [µM] | IC50 (Full length human TBK1) [µM]
O=C(NCC(F)(F)F)c1nc(-c2ccc3nc(NC(=O)C4CC4)cn3n2)cs1 [Example 21, 4-(2-(cyclopropanecarboxamido)imidazo[1,2-b]pyridazin-6-yl)-N-(2,2,2-trifluoroethyl)thiazole-2-carboxamide] | 3.39 | 0.0501
CC(NC(=O)c1nc(-c2ccc3nc(NC(=O)C4CC4)cn3c2)c[nH]1)C(F)(F)F (centres unmarked) [Example 24, 4-(2-(cyclopropanecarboxamido)imidazo[1,2-a]pyridin-6-yl)-N-(1,1,1-trifluoropropan-2-yl)-1H-imidazole-2-carboxamide] | 0.468 | 0.0251
O=C(NCC(F)(F)F)c1cc(-c2ccc3nc(NC(=O)C4CC4)cn3c2)sn1 [Example 26, 5-(2-(cyclopropanecarboxamido)imidazo[1,2-a]pyridin-6-yl)-N-(2,2,2-trifluoroethyl)isothiazole-3-carboxamide] | 0.759 | 0.0794
O=C(NCC(F)F)c1cc(-c2ccc3nc(NC(=O)C4CC4)cn3c2)n[nH]1 [Example 27, 5-(2-(cyclopropanecarboxamido)imidazo[1,2-a]pyridin-6-yl)-N-(2,2-difluoroethyl)-1H-pyrazole-3-carboxamide] | 3.72 | 0.0316
CN(CC(F)(F)F)C(=O)c1cc(-c2ccc3nc(NC(=O)C4CC4)cn3c2)cs1 [Example 28, 4-(2-(cyclopropanecarboxamido)imidazo[1,2-a]pyridin-6-yl)-N-methyl-N-(2,2,2-trifluoroethyl)thiophene-2-carboxamide] | 0.676 | 0.0126
O=C(NCC(F)(F)F)c1ccn(-c2ccc3nc(NC(=O)C4CC4)cn3c2)n1 [Example 34, 1-(2-(cyclopropanecarboxamido)imidazo[1,2-a]pyridin-6-yl)-N-(2,2,2-trifluoroethyl)-1H-pyrazole-3-carboxamide] | 0.513 | 0.02
O=C(NCC(F)F)c1ccn(-c2ccc3nc(NC(=O)C4CC4)cn3c2)n1 [Example 35, 1-(2-(cyclopropanecarboxamido)imidazo[1,2-a]pyridin-6-yl)-N-(2,2-difluoroethyl)-1H-pyrazole-3-carboxamide] | 5.25 | 0.0794
O=C(NCC(F)F)c1ccn(-c2cn3cc(NC(=O)C4CC4)nc3cn2)n1 [Example 38, 1-(2-(cyclopropanecarboxamido)imidazo[1,2-a]pyrazin-6-yl)-N-(2,2-difluoroethyl)-1H-pyrazole-3-carboxamide] | 1.17 | 0.0251
O=C(NCC(F)(F)F)c1ccn(-c2ccc3nc(NC(=O)C4CC4)cn3n2)n1 [Example 39, 1-(2-(cyclopropanecarboxamido)imidazo[1,2-b]pyridazin-6-yl)-N-(2,2,2-trifluoroethyl)-1H-pyrazole-3-carboxamide] | > 50.1 | 0.251
O=C(NCC(F)(F)F)c1cnn(-c2ccc3nc(NC(=O)C4CC4)cn3c2)c1 [Example 40, 1-(2-(cyclopropanecarboxamido)imidazo[1,2-a]pyridin-6-yl)-N-(2,2,2-trifluoroethyl)-1H-pyrazole-4-carboxamide] | 0.708 | 0.0316
CC(F)(F)CNC(=O)c1cn(-c2ccc3nc(NC(=O)C4CC4)cn3c2)cn1 [Example 42, 1-(2-(cyclopropanecarboxamido)imidazo[1,2-a]pyridin-6-yl)-N-(2,2-difluoropropyl)-1H-imidazole-4-carboxamide] | 5.13 | 0.1
C[C@@H](NC(=O)c1cn(-c2ccc3nc(NC(=O)C4CC4)cn3c2)cn1)C(F)(F)F [Example 43] | 2.34 | 0.0501
O=C(NCC(F)(F)F)c1cc(-c2ccc3nc(NC(=O)C4CC4)cn3n2)cs1 [Example 44, 4-(2-(cyclopropanecarboxamido)imidazo[1,2-b]pyridazin-6-yl)-N-(2,2,2-trifluoroethyl)thiophene-2-carboxamide] | 0.214 | 0.00398
O=C(Nc1cn2cc(-c3cc(C(=O)N4CCC[C@@H]4C(F)(F)F)n[nH]3)ccc2n1)C1CC1 [Example 52, (R)-N-(6-(3-(2-(trifluoromethyl)pyrrolidine-1-carbonyl)-1H-pyrazol-5-yl)imidazo[1,2-a]pyridin-2-yl)cyclopropanecarboxamide] | 0.148 | 0.00631

Second part, the compound after the results:

EC50 (TBK1) [µM] | IC50 (Full length human TBK1) [µM] | Compound
5.37 | 0.0794 | Cc1sc(C(=O)NCC(F)(F)F)cc1-c1ccc2nc(NC(=O)C3CC3)cn2n1 [Example 23, 4-(2-(cyclopropanecarboxamido)imidazo[1,2-b]pyridazin-6-yl)-5-methyl-N-(2,2,2-trifluoroethyl)thiophene-2-carboxamide]
6.76 | 0.0398 | Cc1sc(C(=O)NCC(F)(F)F)cc1-c1ccc2nc(NC(=O)C3CC3)cn2c1 [Example 29, 4-(2-(cyclopropanecarboxamido)imidazo[1,2-a]pyridin-6-yl)-5-methyl-N-(2,2,2-trifluoroethyl)thiophene-2-carboxamide]
6.46 | 0.0251 | Cc1sc(C(=O)NCC(F)(F)F)cc1-c1cn2cc(NC(=O)C3CC3)nc2cn1 [Example 30, 4-(2-(cyclopropanecarboxamido)imidazo[1,2-a]pyrazin-6-yl)-5-methyl-N-(2,2,2-trifluoroethyl)thiophene-2-carboxamide]
0.12 | 0.00501 | O=C(NCC(F)(F)F)c1cc(-c2ccc3nc(NC(=O)C4CC4)cn3c2)cs1 [Example 32, 4-(2-(cyclopropanecarboxamido)imidazo[1,2-a]pyridin-6-yl)-N-(2,2,2-trifluoroethyl)thiophene-2-carboxamide]
0.269 | 0.00501 | O=C(NCC(F)(F)F)c1cc(-c2cn3cc(NC(=O)C4CC4)nc3cn2)cs1 [Example 33, 4-(2-(cyclopropanecarboxamido)imidazo[1,2-a]pyrazin-6-yl)-N-(2,2,2-trifluoroethyl)thiophene-2-carboxamide]
0.245 | 0.01 | O=C(NCC(F)(F)F)c1ccn(-c2cn3cc(NC(=O)C4CC4)nc3cn2)n1 [Example 36, 1-(2-(cyclopropanecarboxamido)imidazo[1,2-a]pyrazin-6-yl)-N-(2,2,2-trifluoroethyl)-1H-pyrazole-3-carboxamide]
0.479 | 0.0126 | O=C(NCC(F)(F)F)c1ncc(-c2ccc3nc(NC(=O)C4CC4)cn3c2)[nH]1 [Example 50, 4-(2-(cyclopropanecarboxamido)imidazo[1,2-a]pyridin-6-yl)-N-(2,2,2-trifluoroethyl)-1H-imidazole-2-carboxamide]
0.49 | 0.00794 | O=C(NCC(F)(F)F)c1cc(-c2ccc3nc(NC(=O)C4CC4)cn3c2)[nH]n1 [Example 51, 5-(2-(cyclopropanecarboxamido)imidazo[1,2-a]pyridin-6-yl)-N-(2,2,2-trifluoroethyl)-1H-pyrazole-3-carboxamide]

Reference: US9598424B2 (Takeda Pharmaceutical Company Limited, priority 2014, dated 2017)
